# According to patent US20020019356A1, “HYPERBARIC OXIGENATION (HBO) AS THE METHOD FOR ENHANCEMENT EFFICIENCY OF ANTI-HIV SUBSTANCES IN INHIBITION THE HUMAN IMMUNODEFICIENCY VIRUS (HIV) REPRODUCTION AND REDUCTION OF THE CYTOTOXIC EFFECT OF THOSE SUBSTANCES AS WELL” (priority 1998, published 2002):
# How the values were obtained:
# [1] = system: HIV-1BRU; test: Viral antigen content (polyclonal EIA) in supernatant of Supt1 culture infected with HIV-1BRU, with or without HBO; type: cell-based, Human Immunodeficiency Virus; set-up: unit not given here; settings: Supt1/HIV-1BRU
# Method: 1.) Determination of the total level of viral antigen expression by means of the method of polyclonal immunoenzyme analysis (EIA) [ABBOTT™ ELISA Kit]. […]
# (§1) 18 million Supt1 cells in 60 ml of the growth medium RPMI-1640 with 10% fetal calf serum, 2 mM L-glutamine and […] genthamycin were placed in each of 2 plastic flasks (75 cm^3), mark Costar®, USA, one of which was subjected to HBO (Ox+), and the other was used for counterchecks with intact and infected cells without a HBO exposure (Ox−).
# (§2) The HBO [6] was carried out in the oxygenous pressure chamber BLKS-303M. The pressure chamber was sealed, blown out with oxygen over 7 min till an oxygen concentration of 98-100% was obtained at the outlet of the pressure chamber, whereupon the oxygen pressure in said pressure chamber was increased up to 1.5 ate. The compression rate was 1,077 ate/min and the time period of isocompression was 40 min. After having finished the HBO process, the oxygen pressure was decreased to atmospheric during 6 min.
# (§3) Over 40 min after a finish of the HBO—procedure in the each well of the 24-wells plate (Nuclon®, Denmark) added 45 μL of a cell suspension (3×10^5 cell/mL) and 50 μL of a growth substance with a different concentrations of AZT.
# (§4) After an incubation over 2 hours at 37° C. an oxygenated and non-oxygenated samples were infected with HIV-1BRU (non-resistant to AZT) and HIV-1A216 (resistant to AZT),
# (§5) After having centrifuged 24-wells plate at 300 g over 10 min, supernatant was taken out the wells by S-tips (besides […] of a cell's sediment), to which was added […] of the virus-containing supernatant of 480 TCID50.
# (§6) After an incubation over two hours with the virus-containing inoculum at 37° C., the cells were there-fold washed off from residual virus by centrifugation with 300 g over 10 min in the 30-fold volume of the medium and in every well of 24-wells plate were added […] of the growth medium with corresponding AZT-concentration.
# (§7) The mixed samples were cultivated in a thermostat at 37° C., 5% CO2 and 80% moisture content.
# The experimental procedure was identically with that described in Example 1, except that there were monitored HIV-BRU antigen expression by the method of polyclonal EIA.
# [2] = system: Supt1 cells; test: Viability of Supt1 cells with different AZT concentrations, with or without HBO (MTT-test); type: cell-based, human
# Excerpt: 4.) Monitoring the viability by means of direct cell calculation in a Goryaev counting chamber after colouring with the excepting vital stain 0.2% trypan blue. For the direct comparison of the amounts of living cells there is used the so-called MTT-method, which is based on the capability of living cells to reduce the yellow water-soluble tetrazole salt MTT (3-(4,5)-dimethylthiazol-2-ye)-2,5-diphenyl-bromide tetrazole) into insoluble intracellular MTT-formazan crystals, whereas dead cells are not capable to do this.
# A concentrated MTT solution of 10 mg/ml is prepared with a phosphate buffer solution at pH 7.4 and brought into a hollow with the cells at a 10-fold dilution rate.
# After incubation over 4 hours at 37° C. the supernatant is isolated with help of microdosing tips of a special design (S-tips).
# Into the hollow is added […] of DMSO as solvent. The thereupon measurable optical density is within 540 to 590 nm, i.e. in the absorption range of formazan, is direct proportional to the quantity of living cells.
# as §1, §2, §3, §6
# The mixed samples were cultivated in a thermostat at 37° C., 5% CO2 and 80% moisture content. […]
# The monitoring results of viability of oxygenated and not-oxygenated cells Supt1, inoculated HIV-1BRU with different AZT-concentrations, are shown in Table 1.
# [3] = system: HIV-1A216; test: Viral antigen content (polyclonal EIA) in supernatant of Supt1 culture infected with AZT-resistant HIV-1A216, with or without HBO; type: cell-based, Human Immunodeficiency Virus; settings: Supt1/HIV-1A216
# Method: 1.) Determination of the total level of viral antigen expression by means of the method of polyclonal immunoenzyme analysis (EIA) [ABBOTT™ ELISA Kit].
# The values of 50 per cent effective AZT dose (ED50) were calculated conformably to oxidised and non-oxidised cells subsequently infected by HIV and treated by AZT in various concentrations.
# ED50 values were derived according to the linear regression resulting averaged values of the optical density signal V(%) depending on the logarithm of AZT doses (10^−6; 10^−7; . . . 10^−12 M).[8]
# Regression lines are determined with the following formula: […]
# where <> and <> are regression coefficients, calculated by mean square root method.
# as §1, §2, §3, §4, §5, §6, §7
# The experimental procedure was identically with that described in Example 1, except that there were monitored HIV-1A216 antigen expression by the method of polyclonal EIA.
# [4] = AZT 10^−11 M, day 3 after infection, OX+
# [5] = AZT 10^−11 M, day 3 after infection, OX−
smiles,measurement,setting,value
"Cc1cn([C@H]2C[C@H](N=[N+]=[N-])[C@@H](CO)O2)c(=O)[nH]c1=O [AZT, 3-azido-2,3-didezoxythimidim]",Content of viral antigen in supernatant,"[1]; AZT 10^−7 M, day 3 after infection, OX+",8.8
same,Content of viral antigen in supernatant,"[1]; AZT 10^−7 M, day 3 after infection, OX−",8.0
same,Content of viral antigen in supernatant,"[1]; AZT 10^−7 M, day 5 after infection, OX+",9.9
same,Content of viral antigen in supernatant,"[1]; AZT 10^−7 M, day 5 after infection, OX−",50.2
same,Content of viral antigen in supernatant,"[1]; AZT 10^−9 M, day 3 after infection, OX+",7.4
same,Content of viral antigen in supernatant,"[1]; AZT 10^−9 M, day 3 after infection, OX−",14.5
same,Content of viral antigen in supernatant,"[1]; AZT 10^−9 M, day 5 after infection, OX+",21.5
same,Content of viral antigen in supernatant,"[1]; AZT 10^−9 M, day 5 after infection, OX−",82.3
same,Content of viral antigen in supernatant,[1]; [4],8.7
same,Content of viral antigen in supernatant,[1]; [5],14.4
same,Content of viral antigen in supernatant,"[1]; AZT 10^−11 M, day 5 after infection, OX+",62.0
same,Content of viral antigen in supernatant,"[1]; AZT 10^−11 M, day 5 after infection, OX−",83.4
same,viability of the cell culture Supt1 (MTT-test),"[2]; AZT 10^−3 M, day 2 after AZT addition, HBO+",52.3 per cents
same,viability of the cell culture Supt1 (MTT-test),"[2]; AZT 10^−3 M, day 2 after AZT addition, HBO−",45.3 per cents
same,viability of the cell culture Supt1 (MTT-test),"[2]; AZT 10^−3 M, day 3 after AZT addition, HBO+",55.6 per cents
same,viability of the cell culture Supt1 (MTT-test),"[2]; AZT 10^−3 M, day 3 after AZT addition, HBO−",51.1 per cents
same,viability of the cell culture Supt1 (MTT-test),"[2]; AZT 10^−3 M, day 5 after AZT addition, HBO+",35.0 per cents
same,viability of the cell culture Supt1 (MTT-test),"[2]; AZT 10^−3 M, day 5 after AZT addition, HBO−",25.3 per cents
same,viability of the cell culture Supt1 (MTT-test),"[2]; AZT 10^−4 M, day 2 after AZT addition, HBO+",65.2 per cents
same,viability of the cell culture Supt1 (MTT-test),"[2]; AZT 10^−4 M, day 2 after AZT addition, HBO−",63.1 per cents
same,viability of the cell culture Supt1 (MTT-test),"[2]; AZT 10^−4 M, day 3 after AZT addition, HBO+",73.6 per cents
same,viability of the cell culture Supt1 (MTT-test),"[2]; AZT 10^−4 M, day 3 after AZT addition, HBO−",50.5 per cents
same,viability of the cell culture Supt1 (MTT-test),"[2]; AZT 10^−4 M, day 5 after AZT addition, HBO+",61.1 per cents
same,viability of the cell culture Supt1 (MTT-test),"[2]; AZT 10^−4 M, day 5 after AZT addition, HBO−",55.1 per cents
same,viability of the cell culture Supt1 (MTT-test),"[2]; AZT 10^−5 M, day 2 after AZT addition, HBO+",79.3 per cents
same,viability of the cell culture Supt1 (MTT-test),"[2]; AZT 10^−5 M, day 2 after AZT addition, HBO−",72.3 per cents
same,viability of the cell culture Supt1 (MTT-test),"[2]; AZT 10^−5 M, day 3 after AZT addition, HBO+",85.4 per cents
same,viability of the cell culture Supt1 (MTT-test),"[2]; AZT 10^−5 M, day 3 after AZT addition, HBO−",70.0 per cents
same,viability of the cell culture Supt1 (MTT-test),"[2]; AZT 10^−5 M, day 5 after AZT addition, HBO+",80.5 per cents
same,viability of the cell culture Supt1 (MTT-test),"[2]; AZT 10^−5 M, day 5 after AZT addition, HBO−",71.9 per cents
same,viability of the cell culture Supt1 (MTT-test),"[2]; AZT 10^−6 M, day 2 after AZT addition, HBO+",89.3 per cents
same,viability of the cell culture Supt1 (MTT-test),"[2]; AZT 10^−6 M, day 2 after AZT addition, HBO−",52.7 per cents
same,viability of the cell culture Supt1 (MTT-test),"[2]; AZT 10^−6 M, day 3 after AZT addition, HBO+",96.0 per cents
same,viability of the cell culture Supt1 (MTT-test),"[2]; AZT 10^−6 M, day 3 after AZT addition, HBO−",80.2 per cents
same,viability of the cell culture Supt1 (MTT-test),"[2]; AZT 10^−6 M, day 5 after AZT addition, HBO+",87.8 per cents
same,viability of the cell culture Supt1 (MTT-test),"[2]; AZT 10^−6 M, day 5 after AZT addition, HBO−",73.0 per cents
same,viability of the cell culture Supt1 (MTT-test),"[2]; AZT 10^−7 M, day 2 after AZT addition, HBO+",93.0 per cents
same,viability of the cell culture Supt1 (MTT-test),"[2]; AZT 10^−7 M, day 2 after AZT addition, HBO−",53.8 per cents
same,viability of the cell culture Supt1 (MTT-test),"[2]; AZT 10^−7 M, day 3 after AZT addition, HBO+",95.2 per cents
same,viability of the cell culture Supt1 (MTT-test),"[2]; AZT 10^−7 M, day 3 after AZT addition, HBO−",114.1 per cents
same,viability of the cell culture Supt1 (MTT-test),"[2]; AZT 10^−7 M, day 5 after AZT addition, HBO+",92.0 per cents
same,viability of the cell culture Supt1 (MTT-test),"[2]; AZT 10^−7 M, day 5 after AZT addition, HBO−",79.2 per cents
same,viability of the cell culture Supt1 (MTT-test),"[2]; AZT 10^−8 M, day 2 after AZT addition, HBO+",107.8 per cents
same,viability of the cell culture Supt1 (MTT-test),"[2]; AZT 10^−8 M, day 2 after AZT addition, HBO−",100.6 per cents
same,viability of the cell culture Supt1 (MTT-test),"[2]; AZT 10^−8 M, day 3 after AZT addition, HBO+",100.9 per cents
same,viability of the cell culture Supt1 (MTT-test),"[2]; AZT 10^−8 M, day 3 after AZT addition, HBO−",118.3 per cents
same,viability of the cell culture Supt1 (MTT-test),"[2]; AZT 10^−8 M, day 5 after AZT addition, HBO+",85.6 per cents
same,viability of the cell culture Supt1 (MTT-test),"[2]; AZT 10^−8 M, day 5 after AZT addition, HBO−",85.9 per cents
same,viability of the cell culture Supt1 (MTT-test),"[2]; AZT 10^−9 M, day 2 after AZT addition, HBO+",98.3 per cents
same,viability of the cell culture Supt1 (MTT-test),"[2]; AZT 10^−9 M, day 2 after AZT addition, HBO−",95.2 per cents
same,viability of the cell culture Supt1 (MTT-test),"[2]; AZT 10^−9 M, day 3 after AZT addition, HBO+",102.1 per cents
same,viability of the cell culture Supt1 (MTT-test),"[2]; AZT 10^−9 M, day 3 after AZT addition, HBO−",98.6 per cents
same,viability of the cell culture Supt1 (MTT-test),"[2]; AZT 10^−9 M, day 5 after AZT addition, HBO+",97.3 per cents
same,viability of the cell culture Supt1 (MTT-test),"[2]; AZT 10^−9 M, day 5 after AZT addition, HBO−",80.1 per cents
same,Content of viral antigen in supernatant,"[3]; AZT 10^−6 M, day 2 after infection, OX+",20.5
same,Content of viral antigen in supernatant,"[3]; AZT 10^−6 M, day 2 after infection, OX−",21.8
same,Content of viral antigen in supernatant,"[3]; AZT 10^−6 M, day 3 after infection, OX+",33.3
same,Content of viral antigen in supernatant,"[3]; AZT 10^−6 M, day 3 after infection, OX−",51.1
same,Content of viral antigen in supernatant,"[3]; AZT 10^−8 M, day 2 after infection, OX+",29.3
same,Content of viral antigen in supernatant,"[3]; AZT 10^−8 M, day 2 after infection, OX−",33.1
same,Content of viral antigen in supernatant,"[3]; AZT 10^−8 M, day 3 after infection, OX+",51.8
same,Content of viral antigen in supernatant,"[3]; AZT 10^−8 M, day 3 after infection, OX−",70.7
same,Content of viral antigen in supernatant,"[3]; AZT 10^−11 M, day 2 after infection, OX+",29.6
same,Content of viral antigen in supernatant,"[3]; AZT 10^−11 M, day 2 after infection, OX−",48.2
same,Content of viral antigen in supernatant,[3]; [4],44.5
same,Content of viral antigen in supernatant,[3]; [5],92.1
